This passage reports TGI results from PubChem BioAssay (NCI).

Among the test systems are UACC-62 melanoma; COLO 205 colon; A549 NSCLC; PC-3 prostate; UO-31 renal; CAKI-1 renal; A498 renal; SK-MEL-28 melanoma; SK-OV-3 ovarian; MDA-MB-231 breast; RPMI-8226 leukemia.
Holding throughout (test): inhibition of tumour cell growth, NCI panel, 48 h

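Each compound was tested at five concentrations against cells in 96-well plates for 48 hours. TGI is the concentration that stops growth completely.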

As to `NS(=O)(=O)c1nnc(NS(=O)(=O)c2ccc([N+](=O)[O-])cc2)s1`, the TGI in the test on UACC-62 melanoma, in the test on COLO 205 colon, with A549 NSCLC, in the test with PC-3 prostate, in the test with UO-31 renal and in the test with CAKI-1 renal was over 100 µM in each case. Moreover, the TGI with A498 renal, in the test on SK-MEL-28 melanoma, in the test with SK-OV-3 ovarian, with MDA-MB-231 breast and with RPMI-8226 leukemia was over 100 µM each time.
As to `COC(=O)CNC(=O)CCC(C)[C@H]1CCC2C3C(C[C@H](OC(C)=O)[C@@]21C)[C@@]1(C)CCC2(C[C@H]1C[C@H]3OC(C)=O)OOC1(CCCCC1)OO2` (stereo partly drawn), the TGI with UACC-62 melanoma amounted to 21.7 µM; in the test with COLO 205 colon it was 3.89 µM; with A549 NSCLC, 3.36 µM; in the test on PC-3 prostate, 6.29 µM; with UO-31 renal it was 3.3 µM; in the test on CAKI-1 renal, 3.78 µM. In addition, the TGI in the test with A498 renal turned out to be 34.4 µM; with SK-MEL-28 melanoma, 22.1 µM; in the test on SK-OV-3 ovarian it was 25 µM; in the test with MDA-MB-231 breast it was 3.48 µM; in the test on RPMI-8226 leukemia, 3.91 µM.
Regarding `C#CC(O)/C=C/C(O)CCCC(O)CC#CC(O)C#CCCCCC(O)/C=C/CCCC(O)/C=C/CCCCCCCCCCCCCC(O)C(O)C#CC(=O)O` (stereo not drawn), the TGI in the test on UACC-62 melanoma, in the test on COLO 205 colon, in the test on A549 NSCLC, with PC-3 prostate, in the test with UO-31 renal and in the test with CAKI-1 renal was over 25 µM each time. Also, the TGI in the test with A498 renal, in the test with SK-MEL-28 melanoma, in the test on SK-OV-3 ovarian, with MDA-MB-231 breast and in the test with RPMI-8226 leukemia was over 25 µM throughout.
Take `C#C[C@]1(O)CC[C@H]2[C@@H]3CCC4=C/C(=N/OC(=O)c5cccc6c(=O)c7ccccc7[nH]c56)CCC4[C@H]3CC[C@@]21CC` (stereo partly drawn): the TGI in the test on UACC-62 melanoma was over 71.9 µM; in the test with COLO 205 colon, over 79.9 µM; in the test on A549 NSCLC, over 100 µM; in the test on PC-3 prostate, over 96 µM; with UO-31 renal it was over 84.3 µM; with CAKI-1 renal it was over 85 µM. Also, the TGI in the test with A498 renal is over 100 µM; in the test with SK-MEL-28 melanoma, over 100 µM; with SK-OV-3 ovarian, over 100 µM; in the test on MDA-MB-231 breast it was over 100 µM; in the test with RPMI-8226 leukemia, 10.6 µM.
Regarding `COc1ccc2c(c1OC)C(=O)O[C@@H]2[C@H]1c2c(cc3c(c2OC)OCO3)CCN1C`, the TGI in the test on UACC-62 melanoma, in the test on COLO 205 colon, in the test with A549 NSCLC, in the test with PC-3 prostate, with UO-31 renal and with CAKI-1 renal was over 100 µM in each case. Also, the TGI in the test with A498 renal, in the test with SK-MEL-28 melanoma, in the test on SK-OV-3 ovarian, in the test on MDA-MB-231 breast and in the test with RPMI-8226 leukemia was over 100 µM throughout.
In the case of `O=P1(Cc2ccccc2)c2ccccc2-c2ccccc21`, the TGI in the test on UACC-62 melanoma is 13.7 µM; in the test on COLO 205 colon, 17 µM; with A549 NSCLC, over 94.6 µM; in the test on PC-3 prostate it was over 100 µM; with UO-31 renal, 69.2 µM; in the test on CAKI-1 renal, 50.4 µM. In addition, the TGI is 38.1 µM with A498 renal; 24.6 µM in the test on SK-MEL-28 melanoma; over 100 µM in the test on SK-OV-3 ovarian; over 79.4 µM in the test on MDA-MB-231 breast; 4.61 µM in the test on RPMI-8226 leukemia.
As for `O=C1C(Cl)=C(NCCF)C(=O)c2ncccc21`, the TGI was 2.68 µM in the test on UACC-62 melanoma; 4.07 µM in the test with A549 NSCLC; 3.09 µM in the test with PC-3 prostate; 2.6 µM with UO-31 renal; over 10 µM in the test with A498 renal; 3.41 µM in the test with SK-MEL-28 melanoma. Also, the TGI with SK-OV-3 ovarian is 3.74 µM; in the test with MDA-MB-231 breast, 4 µM; with RPMI-8226 leukemia, over 10 µM.
With `COc1ccc2oc(C(=O)N3CC(CCl)c4ccc(N)cc43)cc2c1` (stereo not drawn), the TGI with UACC-62 melanoma is 0.496 µM; with COLO 205 colon, 1.28 µM; in the test on A549 NSCLC, over 100 µM; with PC-3 prostate it was over 21.3 µM; in the test with UO-31 renal, 0.617 µM; in the test on CAKI-1 renal, 0.648 µM. In addition, the TGI is 0.865 µM in the test on A498 renal, 2.55 µM in the test on SK-MEL-28 melanoma, 8.78 µM in the test with SK-OV-3 ovarian and over 26.7 µM with MDA-MB-231 breast.
Turning to `Cc1cc(N(CCC#N)CCC#N)ccc1/C(N=Nc1ccc([N+](=O)[O-])cc1)=N\NC(=O)c1ccccc1`, the TGI with UACC-62 melanoma, with COLO 205 colon, in the test on A549 NSCLC, with PC-3 prostate, in the test with UO-31 renal and in the test with CAKI-1 renal was over 100 µM throughout. For the same compound, the TGI is 74 µM in the test with A498 renal, over 100 µM with SK-OV-3 ovarian, over 100 µM in the test on MDA-MB-231 breast and over 100 µM with RPMI-8226 leukemia.
For `CNC(=S)/C(C#N)=C(\N)N1CCCC1`, the TGI with UACC-62 melanoma, in the test with COLO 205 colon, in the test with A549 NSCLC, with PC-3 prostate, with UO-31 renal and with CAKI-1 renal was over 100 µM each time. Further, the TGI in the test with A498 renal, in the test on SK-MEL-28 melanoma, in the test with SK-OV-3 ovarian, with MDA-MB-231 breast and in the test with RPMI-8226 leukemia was over 100 µM throughout.
In the case of `N#Cc1c(-c2ccc([N+](=O)[O-])cc2)cc(-c2ccc(Nc3ccnc4cc(Cl)ccc34)cc2)nc1N`, the TGI was over 64.1 µM in the test on UACC-62 melanoma; over 66 µM with COLO 205 colon; 8.8 µM with A549 NSCLC; 37.4 µM with PC-3 prostate; 42.8 µM in the test with UO-31 renal; 40.4 µM in the test on CAKI-1 renal. The TGI is 51.7 µM in the test with A498 renal; over 100 µM in the test on SK-MEL-28 melanoma; 52.5 µM in the test on SK-OV-3 ovarian; 33.7 µM with MDA-MB-231 breast; 15 µM in the test with RPMI-8226 leukemia.
Turning to `COc1cccc2cc(C(=O)NC34CC5CC(CC(C5)C3)C4)c(=N)oc12`, the TGI with UACC-62 melanoma was over 100 µM; in the test with COLO 205 colon, over 100 µM; with A549 NSCLC it was over 100 µM; with PC-3 prostate, over 100 µM; in the test on UO-31 renal, 7.63 µM; with CAKI-1 renal, over 100 µM. Moreover, the TGI is over 100 µM in the test with A498 renal; over 100 µM in the test on SK-MEL-28 melanoma; over 100 µM with SK-OV-3 ovarian; over 100 µM in the test on MDA-MB-231 breast; over 77.9 µM in the test on RPMI-8226 leukemia.
